Experimental data as given in patent publication US20210045385A1, “PYRIDAZINONE-SUBSTITUTED KETOXIMES AS HERBICIDES” (FMC Corporation, priority 2018, published 2021).

Assays:
Format in all cases: in vivo
[1] = system: ragweed (common ragweed, Ambrosia artemisiifolia); test: Test C postemergence, visual plant response rating
In short: (§1)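 Seeds sown in a loam–sand blend got a directed preemergence soil spray; postemergence plants (2–10 cm, one- to two-leaf stage) were sprayed with compound in a non-phytotoxic solvent plus surfactant. Injury was scored visually against untreated controls after about 10 d in a greenhouse on a 0–100 scale (100 = complete control).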

[2] = system: foxtail, giant (giant foxtail, Setaria faberi); test: Test C postemergence, visual plant response rating
In short: as §1

[3] = system: pigweed (Amaranthus retroflexus); test: Test C postemergence, visual plant response rating
In short: as §1

[4] = system: galium (catchweed bedstraw, Galium aparine); test: Test C postemergence, visual plant response rating
In short: as §1

[5] = system: kochia (Bassia scoparia); test: Test C postemergence, visual plant response rating
In short: as §1

[6] = system: Italian ryegrass (Lolium mutiflorum); test: Test C postemergence, visual plant response rating
In short: as §1

[7] = system: blackgrass (Alopecurus myosuroides); test: Test C postemergence, visual plant response rating
In short: as §1

[8] = system: wheat (Triticum aestivum); test: Test C postemergence, visual plant response rating
In short: as §1

[9] = system: barnyardgrass (Echinochloa crus-galli); test: Test C postemergence, visual plant response rating
In short: as §1

[10] = system: corn (Zea mays); test: Test C postemergence, visual plant response rating
In short: as §1

[11] = system: rice (Oryza sativa); test: Test D flooded paddy test, visual plant response rating; conditions: 250 g ai/ha, scale 0 to 100 (0 no effect, 100 complete control), 13 to 15 d
In short: (§2)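 Greenhouse paddy assay scored on a 0–100 visual scale after 13 to 15 d, where 100 means complete control and a dash marks no result; dosing was into 3 cm floodwater over 2-leaf plants.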

[12] = system: duck salad (Heteranthera limosa); test: as above; conditions: 250 g ai/ha, scale 0 to 100 (0 no effect, 100 complete control), 13 to 15 d
In short: as §2

[13] = system: sedge umbrella (small-flower umbrella sedge, Cyperus difformis); test: as above; conditions: 250 g ai/ha, scale 0 to 100 (0 no effect, 100 complete control), 13 to 15 d
In short: as §2

[14] = system: barnyardgrass (Echinochloa crus-galli); test: as above; conditions: 250 g ai/ha, scale 0 to 100 (0 no effect, 100 complete control), 13 to 15 d
In short: as §2

[15] = system: ragweed (common ragweed, Ambrosia artemisiifolia); test: Test C preemergence, visual plant response rating
In short: as §1

[16] = system: foxtail, giant (giant foxtail, Setaria faberi); test: Test C preemergence, visual plant response rating
In short: as §1

[17] = system: pigweed (Amaranthus retroflexus); test: Test C preemergence, visual plant response rating
In short: as §1

[18] = system: kochia (Bassia scoparia); test: Test C preemergence, visual plant response rating
In short: as §1

[19] = system: Italian ryegrass (Lolium mutiflorum); test: Test C preemergence, visual plant response rating
In short: as §1

[20] = system: barnyardgrass (Echinochloa crus-galli); test: Test C preemergence, visual plant response rating
In short: as §1

[21] = Test C, postemergence, 125 g ai/ha
[22] = Test C, postemergence, 31 g ai/ha
[23] = Test C, 31 g ai/ha, 0 is no effect, 100 is complete control
[24] = Test C, 125 g ai/ha, 0 is no effect, 100 is complete control

Row | SMILES | Ragweed plant response rating (0 to 100 scale) ([1]; Postemergence, 31 g ai/ha) | Ragweed plant response rating (0 to 100 scale) [1, 21] | Foxtail, Giant plant response rating (0 to 100 scale) [2, 21] | Pigweed plant response rating (0 to 100 scale) ([3]; Postemergence, 31 g ai/ha) | Pigweed plant response rating (0 to 100 scale) [3, 21] | Galium plant response rating (0 to 100 scale) [4, 21] | Kochia plant response rating (0 to 100 scale) [5, 21] | Ryegrass, Italian plant response rating (0 to 100 scale) ([6]; Postemergence, 31 g ai/ha) | Ryegrass, Italian plant response rating (0 to 100 scale) [6, 21] | Blackgrass plant response rating (0 to 100 scale) [7, 21] | Wheat plant response rating (0 to 100 scale) ([8]; Postemergence, 31 g ai/ha) | Wheat plant response rating (0 to 100 scale) [8, 21] | Barnyardgrass plant response rating (0 to 100 scale) [9, 21] | Corn plant response rating (0 to 100 scale) [10, 21] | Plant response rating, Rice (Flood) [11] | Plant response rating, Ducksalad (Flood) [12] | Plant response rating, Sedge, Umbrella (Flood) [13] | Plant response rating, Barnyardgrass (Flood) [14] | Ragweed plant response rating (0 to 100 scale) [15, 23] | Foxtail, Giant plant response rating (0 to 100 scale) [16, 23] | further results
1 | CON=C(c1cc(Cl)cc(Cl)c1F)c1c(O)c(C)nn(C)c1=O [Compound 153] | 90 | 100 | 100 | 100 | 100 | 100 | 100 | 90 | 100 | 80 | 40 | 80 | 90 | 50 | 40 | 55 | 70 | 80 | 90 | 90 | Foxtail, Giant plant response rating (0 to 100 scale) [2, 22]: 90; Galium plant response rating (0 to 100 scale) [4, 22]: 100; Kochia plant response rating (0 to 100 scale) [5, 22]: 90; Blackgrass plant response rating (0 to 100 scale) [7, 22]: 50; Barnyardgrass plant response rating (0 to 100 scale) [9, 22]: 80; Corn plant response rating (0 to 100 scale) [10, 22]: 20; Ragweed plant response rating (0 to 100 scale) ([15]; 125 g ai/ha): 100; Foxtail, Giant plant response rating (0 to 100 scale) ([16]; 125 g ai/ha): 100; Pigweed plant response rating (0 to 100 scale) ([17]; 125 g ai/ha): 100; Pigweed plant response rating (0 to 100 scale) [17, 23]: 100; Kochia plant response rating (0 to 100 scale) ([18]; 125 g ai/ha): 90; Kochia plant response rating (0 to 100 scale) [18, 23]: 60; Ryegrass, Italian plant response rating (0 to 100 scale) ([19]; 125 g ai/ha): 100; Ryegrass, Italian plant response rating (0 to 100 scale) [19, 23]: 100; Barnyardgrass plant response rating (0 to 100 scale) ([20]; 125 g ai/ha): 90; Barnyardgrass plant response rating (0 to 100 scale) [20, 23]: 80
2 | Cc1nn(C)c(=O)c(C(=NOC(C)C)c2cc(Cl)cc(Cl)c2Cl)c1O [Compound 295] | 100 | 100 | 90 | 60 | 90 | 100 | 50 | 100 | 100 | 0 | 30 | 100 | 70 | 30 | 60 | 65 | 70 | 60 | 90 | 100 | Foxtail, Giant plant response rating (0 to 100 scale) ([2]; Postemergence, 31 g ai/ha): 70; Galium plant response rating (0 to 100 scale) ([4]; Postemergence, 31 g ai/ha): 100; Kochia plant response rating (0 to 100 scale) ([5]; Postemergence, 31 g ai/ha): 0; Blackgrass plant response rating (0 to 100 scale) ([7]; Postemergence, 31 g ai/ha): 0; Barnyardgrass plant response rating (0 to 100 scale) ([9]; Postemergence, 31 g ai/ha): 50; Corn plant response rating (0 to 100 scale) ([10]; Postemergence, 31 g ai/ha): 0; Ragweed plant response rating (0 to 100 scale) [15, 24]: 100; Foxtail, Giant plant response rating (0 to 100 scale) [16, 24]: 100; Pigweed plant response rating (0 to 100 scale) [17, 23]: 80; Pigweed plant response rating (0 to 100 scale) [17, 24]: 100; Kochia plant response rating (0 to 100 scale) [18, 23]: 0; Kochia plant response rating (0 to 100 scale) [18, 24]: 70; Ryegrass, Italian plant response rating (0 to 100 scale) [19, 23]: 80; Ryegrass, Italian plant response rating (0 to 100 scale) [19, 24]: 100; Barnyardgrass plant response rating (0 to 100 scale) [20, 23]: 0; Barnyardgrass plant response rating (0 to 100 scale) [20, 24]: 0
3 | CCO/N=C(/c1c(O)c(C)nn(C)c1=O)c1cccc2cc(Cl)ccc12 [Compound 244] | 90 | 40 | 80 | 80 | 90 | 90 | 20 | 0 | 10 | 70 | 0 | 0 | 50 | 30 | 15 | 50 | 45 | 10 | 10 | 90 | Foxtail, Giant plant response rating (0 to 100 scale) ([2]; Postemergence, 31 g ai/ha): 80; Galium plant response rating (0 to 100 scale) ([4]; Postemergence, 31 g ai/ha): 80; Kochia plant response rating (0 to 100 scale) ([5]; Postemergence, 31 g ai/ha): 20; Blackgrass plant response rating (0 to 100 scale) ([7]; Postemergence, 31 g ai/ha): 40; Barnyardgrass plant response rating (0 to 100 scale) ([9]; Postemergence, 31 g ai/ha): 30; Corn plant response rating (0 to 100 scale) ([10]; Postemergence, 31 g ai/ha): 10; Ragweed plant response rating (0 to 100 scale) [15, 24]: 20; Foxtail, Giant plant response rating (0 to 100 scale) [16, 24]: 100; Pigweed plant response rating (0 to 100 scale) [17, 23]: 50; Pigweed plant response rating (0 to 100 scale) [17, 24]: 90; Kochia plant response rating (0 to 100 scale) [18, 23]: 0; Kochia plant response rating (0 to 100 scale) [18, 24]: 0; Ryegrass, Italian plant response rating (0 to 100 scale) [19, 23]: 0; Ryegrass, Italian plant response rating (0 to 100 scale) [19, 24]: 20; Barnyardgrass plant response rating (0 to 100 scale) [20, 23]: 40; Barnyardgrass plant response rating (0 to 100 scale) [20, 24]: 70
